“And” between values parts separate entries of the source, which are not always exact repeats. Identical values can stand only once. The source made the active and inactive calls.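 The calls were made as follows: active = compounds giving half or more protection of infected cells from virus-caused growth loss, again on retest; inactive = the rest.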
Tested on: CEM cells HIV-1 protection, formazan growth assay
Assay: NCI AIDS Antiviral Assay
Details: for IC50: measured here: growth of uninfected CEM cells
In short: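 Screen of anti-HIV-1 activity in human CEM cells using a formazan-based growth measurement at five drug concentrations. Hits with 50% or greater protection were repeated, and confirmation required reproducible complete protection.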

Compound COC(=O)NC1(NC(=O)OC)NC(=O)c2cc(OC)c(OC)c(OC)c2N1 has an EC50 greater than 200 µM and an IC50 of 10 µM.
For CCOC(=O)c1nn(Cc2ccccc2)c(=S)[nH]c1=O, the outcome was “inactive” and the IC50 was 123 µM.
In the case of CN(C)CCO/N=C1/C=C2CC[C@H]3[C@@H]4CC[C@H](O)[C@@]4(C)CC[C@@H]3[C@@]2(C)CC1, the EC50 is reported as greater than 200 µM and the IC50 is reported as 6.03 µM.
In the case of CSc1cc(-c2ccccn2)nc(-c2ccccn2)c1.CSc1cc(-c2ccccn2)nc(-c2ccccn2)c1.[Cu+2].[O-][Cl+3]([O-])([O-])[O-], the EC50 is reported as greater than 200 µM and the IC50 is reported as 0.0631 µM.
Work on O=C(O)CCC1C(=O)C2CCN1CC2 (centres undefined) yielded an EC50 greater than 200 µM and an IC50 greater than 200 µM.
COC(CN(C(C)=O)C1CCC2(SCCS2)c2[nH]c3ccccc3c21)OC (centres undefined) gave an EC50 greater than 200 µM and an IC50 of 123 µM.
CCC(CCNC(=O)c1ccccc1)(CCNC(=O)c1ccccc1)[N+](=O)[O-] showed an EC50 greater than 200 µM and an IC50 greater than 200 µM.
O=c1nc(NC(c2ccccc2)(c2ccccc2)c2ccccc2)ccn1CCNCCn1ccc(NC(c2ccccc2)(c2ccccc2)c2ccccc2)nc1=O gave an EC50 greater than 9.33 µM and an IC50 greater than 9.33 µM.
COc1cc(CSc2ccc(O)cc2)cc(O)c1O showed an EC50 greater than 126 µM and an IC50 of 22.9 µM.
Work on O=C1NC2(O)C(=O)c3ccccc3C2(O)N1 (centres undefined) yielded an EC50 greater than 1120 µM and an IC50 greater than 1120 µM.
In the case of O=c1[nH]c(=O)n(C2OC(CO)C(O)C2O)cc1OCCc1ccccc1 (centres undefined), the EC50 is reported as greater than 200 µM and the IC50 is reported as greater than 200 µM.
Work on C[C@H]1[C@H](C)N1CC(O)Cn1ccnc1[N+](=O)[O-] (some centres undefined) yielded an EC50 greater than 200 µM and an IC50 greater than 200 µM.
Cc1cc(=O)n2[nH]nnc2n1 gave an EC50 greater than 200 µM and an IC50 greater than 200 µM.
Work on CCOC(=O)Nc1nc2cc(C(=O)OC)n(C)c2s1 yielded an EC50 greater than 200 µM and an IC50 greater than 200 µM.
Work on O=C1NC(=O)C(COCc2ccccc2)C2=C1SCCC2 (centres undefined) yielded an EC50 greater than 200 µM and an IC50 greater than 200 µM.
NCCN1CCCCCc2ccccc21 showed an EC50 greater than 200 µM and an IC50 of 123 µM.
For Cc1cc(O)c2c(c1)C(O)(c1ccc3c(c1O)C(=O)c1c(O)cc(C)cc1C3(O)C1OC(CO)C(O)C(O)C1O)c1cccc(O)c1C2=O (centres undefined), the outcome was “inactive”.
O=C1CSC(=Nc2ccccc2)N1c1ncccn1 showed an EC50 greater than 47.9 µM and an IC50 greater than 47.9 µM.
With CCN(CC)CCNc1ccc(CO)c2oc3ccccc3c(=O)c12 the EC50 was greater than 363 µM and the IC50 was 2.4 µM.
Compound CC(=O)NC(CCC(=O)c1ccc(Cl)cc1)C(=O)O (centres undefined) has an EC50 greater than 200 µM and an IC50 greater than 200 µM.
For CC(=O)Nc1ccc(S(=O)(=O)c2ccc(NC(C)=O)cc2)cc1, the EC50 was greater than 200 µM and the IC50 was greater than 200 µM.
CCOC(=O)C(C)(c1cn(C)c2ccccc12)c1cn(C)c2ccccc12 was tested, and the outcome was “inactive”.
CC1(C)OCC(C2OC(=O)C(OCc3ccccc3)=C2OCc2ccccc2)O1 (centres undefined) was tested, and the EC50 was greater than 200 µM and the IC50 was greater than 200 µM.
For CCN(/C=C1/C(=O)C(c2ccccc2)N(c2ccccc2)C1=O)CC (centres undefined), the EC50 was greater than 200 µM and the IC50 was greater than 200 µM.
Compound CN=C(Nn1cnnc1)OC has an EC50 greater than 200 µM and an IC50 greater than 200 µM.
Compound C[C@]12CC[C@H](O)CC1=CC[C@@H]1C2CC[C@@]2(C)C1CC[C@@H]2c1ncc(-c2ccccc2)s1 (some centres undefined) has an EC50 greater than 11.5 µM and an IC50 greater than 11.5 µM.
Compound O=C(O)c1ccc(N=Nc2ccc(CCc3ccc(N=Nc4ccc(C(=O)O)cc4O)cc3S(=O)(=O)O)c(S(=O)(=O)O)c2)c(O)c1 has an EC50 of 19.5 µM and an IC50 of 234 µM.
For CC(=O)c1ccc(NC(=O)COC(=O)c2cccc3c(=O)c4ccccc4[nH]c23)cc1, the outcome was “inactive”.
Compound Cc1ccccc1N1C(N)=C(C#N)C(C#N)(C#N)C1c1ccccc1 (centres undefined) has an EC50 greater than 200 µM and an IC50 of 12 µM.
CC1(C)C2C3CCC2C2C[S+]1CC23 showed an EC50 greater than 162 µM and an IC50 of 107 µM.
With CCOC(=O)C/C(O)=C(/C=N/C(=S)NNC(C)=O)C(=O)OCC the EC50 was greater than 200 µM and the IC50 was greater than 200 µM.
CC(C)SC1CC2C(CC1(C)O)C2(C)C (centres undefined) was tested, and the EC50 was greater than 200 µM and the IC50 was > 200 µM and 91.2 µM.
Compound COC1(C)C=NCC(C)(C)NC(=O)C(C)(OC)C=NCC(C)(C)NC1=O (centres undefined) has an EC50 greater than 14.1 µM and an IC50 greater than 14.1 µM.
Compound O=C(O)C(O)C(O)C(=O)O (centres undefined) has an EC50 greater than 200 µM and an IC50 greater than 200 µM.
CCN(CC)CCC1CCCCN1CC(=O)N1c2ccccc2NC(=O)CC1C (centres undefined) showed an EC50 greater than 200 µM and an IC50 greater than 200 µM.
Work on CN=C1Nc2ccccc2C(=S)N2CSC[C@@H]12 yielded an EC50 greater than 200 µM and an IC50 greater than 200 µM.
In the case of C/C(CC(=O)Nc1cccc([N+](=O)[O-])c1)=N\NC(=O)CC#N, the EC50 is reported as greater than 832 µM and the IC50 is reported as 447 µM.
With Cc1cc(-c2ccccc2)nc(Nc2nc3ccccc3o2)n1 the EC50 was greater than 61.7 µM and the IC50 was greater than 61.7 µM.
C[C@]12CCc3nn(-c4ccccc4)nc3C1CC[C@@H]1C2CC[C@]2(C)NC(=O)CCC12 (some centres undefined) showed an EC50 greater than 23.4 µM and an IC50 greater than 23.4 µM.
CSC1=N/C(=C\c2ccc(Cl)cc2)C(=O)N1CN1CCCCC1 was tested, and the EC50 was greater than 200 µM and the IC50 was greater than 200 µM.
Compound CCCNC1=C(Cl)C(=O)c2ccccc2C1=O has an EC50 greater than 145 µM and an IC50 of 26.3 µM.
O=CC1(C(O)C2SCCCS2)SCCCS1 (centres undefined) gave an EC50 greater than 100 µM and an IC50 of 5.5 µM.
CC(C)(C)C(=O)OCC(COC(=O)C(C)(C)C)[N+](=O)[O-] was tested, and the outcome was “inactive”.
With Cc1nn(C(=O)c2ccncc2)c2c1C(c1cccc([N+](=O)[O-])c1)SC(N)=N2 (centres undefined) the outcome was “inactive”.
COc1ccc(C2Oc3cc(OC)c(O)c(C)c3[C@H]2C)cc1 (some centres undefined) was tested, and the EC50 was greater than 45.7 µM and the IC50 was 30.9 µM.
In the case of Cc1ccc(S(=O)(=O)NC(C)C(=O)O)cc1 (centres undefined), the outcome is reported as “inactive”.
For C=CCn1c(=S)sc2c(C(=O)OCC)c3c(C)cc(C)cn3c2c1=O, the EC50 was greater than 3.89 µM and the IC50 was greater than 3.89 µM.
In the case of OCC1OC(n2cnc(C3=NCCCN3)n2)C(O)C1O (centres undefined), the outcome is reported as “inactive”.
Cc1cccc(NC(=O)NCCOC(=O)OCCNC(=O)Nc2cccc(C)c2C)c1C showed an EC50 greater than 200 µM and an IC50 greater than 200 µM.
Compound O=[N+]([O-])c1c(Cl)ccc2nsnc12 has an EC50 greater than 316 µM and an IC50 of 2.04 µM.
In the case of NCCCC1CCCCNC1 (centres undefined), the outcome is reported as “inactive”.
Work on COc1ccc(OC)c(/C=C/[N+](=O)[O-])c1 yielded an EC50 greater than 200 µM and an IC50 of 2.95 µM.
For CC(=O)NC(C)(C)C, the outcome was “inactive”.
Cc1cc2c(C)nn(Cc3ccc(Cl)cc3Cl)c2c(C#N)c1C gave an EC50 greater than 20.9 µM and an IC50 greater than 20.9 µM.
With COC(=O)c1ccccc1C1=C(O)C(=O)C(c2ccccc2C(=O)OC)=C(O)C1=O the EC50 was greater than 63.1 µM and the IC50 was 6.76 µM.
In the case of O=C1CSCc2sccc21, the EC50 is reported as greater than 200 µM and the IC50 is reported as greater than 200 µM.
Compound CCN(CC)c1cccc2c1C1(O)CCC3(CC21)OCCCCO3 (centres undefined) has an EC50 greater than 200 µM and an IC50 of 97.7 µM.
With N#C/C(=C\c1ccc(Br)cc1)C(=O)c1ccccc1 the EC50 was greater than 95.5 µM and the IC50 was 67.6 µM.
CN1c2ccccc2N=Cc2c1oc1ccc3ccccc3c1c2=O gave an EC50 of 46.8 µM and an IC50 of 50.1 µM.
In the case of COc1cc(Br)c(/C(=C\c2ccccc2N)C(=O)O)cc1OC, the outcome is reported as “inactive”.
CC[N+]1(C)CCC(O)(/C=C/c2ccc(OC)cc2)C(C(=O)/C=C/c2ccc(OC)cc2)C1 (centres undefined) gave an EC50 greater than 200 µM and an IC50 of 1.12 µM.
In the case of COc1ccc(N2C(=O)C(=O)N(C)C2=O)c2ccccc12, the outcome is reported as “inactive”.
Cc1cc(-c2ccc(Cl)cc2)c(C#N)c(=S)n1C1OC(CO)C(O)C(O)C1O (centres undefined) showed an EC50 greater than 200 µM and an IC50 greater than 200 µM.
O=c1oc2c3ccc4ccccc4c3n(CCCN3CCCCC3)c2c2ccccc12 gave an EC50 greater than 16.2 µM and an IC50 of 7.76 µM.
In the case of CC(=O)/C(=C/N1CCNC1=S)C(=O)Nc1ccc(Cl)cc1, the outcome is reported as “inactive”.
CN(C)CCC=C1c2ccccc2CCc2ccccc21 was tested, and the EC50 was greater than 200 µM and the IC50 was 34.7 µM.
Work on Cc1cc(=O)n2c(n1)sc1ccc3ccccc3c12 yielded an EC50 greater than 200 µM and an IC50 greater than 200 µM.
For O=C1C2C=CC(C2)C(c2ccc(O)cc2)N1O (centres undefined), the EC50 was greater than 776 µM and the IC50 was greater than 776 µM.
